Experimental data taken from patent US20030031689A1, “Method of skin exfoliation” (priority 2001, published 2003).

Key:
[1] = system: skin flakiness (stratum corneocytes on the back of the hand); assay: Reduction of skin flakiness (D-Squame discs, image analysis) after twice daily topical application to the hand; type: in vivo, human; conditions: used at 2%
Text: In tests conducted to compare the efficacy of various agents of this type, mannose-6-phosphate caused a reduction in skin flakiness that exceeded the reduction achieved by N-acetyl glucosamine, lactobionic acid, and various mixtures of alpha hydroxy acids, all used at the same or higher levels than the mannose-6-phosphate. In a representative test, mannose-6-phosphate used at 1% reduced skin flakiness, a common measure of exfoliation efficacy, at a level of 24% after two weeks of treatment and 36% at four weeks. […] Thus, mannose-6-phosphate is particularly and unexpectedly effective for desquamation.
Thirty female subjects between the ages of 21 and 65 are selected to test the efficacy of mannose-6-phosphate in reducing skin flakiness, an indicator of exfoliation efficacy. The subjects are instructed not to use moisturizers or any other products on their hands, and their baseline measurements are taken. […] At the end of two and four weeks the subjects return for testing without applying the product for at least 12 hours and they are re-evaluated under the same conditions. […]
To evaluate the efficacy of the treatment products, four D-Squame discs are firmly and evenly pressed on the back of each hand with a hand held uniform pressure device and removed by gently pulling away from the skin. […] Desquamation is evaluated from the D-Squame discs via an OPTIMA image analyzer. […]

[2] = system: Normal Human Dermal Fibroblasts(NHDF); assay: Glycosaminoglycan synthesis by 3H-glucosamine incorporation in fibroblast cultures; type: cell-based; conditions: 48 hours
Method: Both mannose and mannose-6-phosphate are tested at various levels from 0.01 mg/ml to 1 mg/ml for their ability to increase the amount of glycosaminoglycans in Normal Human Dermal Fibroblasts(NHDF), using TGF- at 5 and 10 ng/ml as a positive control. NHDF cells are seeded and grown to confluence in a 24 well plate prior to being treated with the test extracts(n=3). At the same time as the treatment, the cultures are labeled with […] of ^3H-glucosamine. The cultures are incubated for 48 hours and extensively washed to remove unbound ^3H-glucosamine prior to being lysed and counted on a scintillation counter. The resulting counts represent newly synthesized glycosaminoglycans. Since glucosamine is required for glycosaminoglycan synthesis, the radioactive glucosamine added to the culture will be incorporated into any glycosaminoglycans synthesized after the addition of the treatment samples. Relative protein levels are determined by comparing the absorbance at 280 nm, of the cell lysates, to the absorbances of a bovine serum albumin curve. […] TGF-, the positive control, is found to increase levels by 28% at 10 ng/ml.

O=C(O)[C@H](O)[C@@H](O)[C@H](O[C@@H]1O[C@H](CO)[C@H](O)[C@H](O)[C@H]1O)[C@H](O)CO [lactobionic acid]
reduction in skin flakiness ([1]; after two weeks of treatment): 16% | reduction in skin flakiness ([1]; at four weeks): 25%

O=C[C@@H](O)[C@@H](O)[C@H](O)[C@H](O)COP(=O)(O)O [mannose-6-phosphate]
increase of glycosaminoglycan levels (normalized to protein levels) ([2]; 0.1 mg/ml): 20% | effect on glycosaminoglycan levels ([2]; levels lower and higher than 0.1 mg/ml (tested 0.01 mg/ml to 1 mg/ml)): did not have any significant effect
